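Briefly, cells in 96-well plates were exposed to five compound concentrations for 48 h, and endpoints were estimated by linear interpolation. GI50 = concentration required for 50% inhibition of growth.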 Activity calls are given as the source filed them. Cut-off read from the data, not from the text of the source: active = GI50 up to about 1.1 µM and inactive = higher. *1 amine or outer side, *2 acyl side, *3 side chain or, on linkers, in order; H or OH if unused. Where a SMILES comes first, the peptide text is derived from it. Bridges are numbered along the chain shown (N, C = ends). Roman numbers before positions name the chains, in order. [ ]: non-standard residue; d: D form. Actinocin(1to9) = Cc1c2oc3c(C)ccc(C(=O)[*:2])c3nc-2c(C(=O)[*:1])c(N)c1=O; NMeV = CN[CH](C(=O)O)C(C)C; Sar = CNCC(=O)O
Key:
Test in all cases: growth of human tumour cells (NCI), 48 h
SN12C = system: SN12C
HOP-92 = system: HOP-92
RXF 393 = system: RXF 393
RPMI-8226 = system: RPMI-8226
UACC-257 = system: UACC-257
CCRF-CEM = system: CCRF-CEM
OVCAR-5 = system: OVCAR-5
HCT-116 = system: HCT-116
NCI/ADR-RES = system: NCI/ADR-RES
MCF7 = system: MCF7
K562 = system: K562
Malme-3M = system: Malme-3M
SK-MEL-5 = system: SK-MEL-5
MDA-N = system: MDA-N
OVCAR-8 = system: OVCAR-8
IGROV-1 = system: IGROV-1
SR = system: SR
KM12 = system: KM12
NCI-H226 = system: NCI-H226
SNB-19 = system: SNB-19

Structure (SMILES)	GI50 (SN12C)	GI50 (HOP-92)	GI50 (RXF 393)	GI50 (RPMI-8226)	GI50 (UACC-257)	GI50 (CCRF-CEM)	GI50 (OVCAR-5)	GI50 (HCT-116)	GI50 (NCI/ADR-RES)	GI50 (MCF7)	GI50 (K562)	GI50 (Malme-3M)	GI50 (SK-MEL-5)	GI50 (MDA-N)	GI50 (OVCAR-8)	GI50 (IGROV-1)	GI50 (SR)	GI50 (KM12)	GI50 (NCI-H226)	GI50 (SNB-19)
CCC(C)C1NC(=O)C(NC(=O)c2c3nc4c(C(=O)NC5C(=O)NC(C(C)C)C(=O)N6CCCC6C(=O)N(C)CC(=O)N(C)C(C(C)C)C(=O)OC5C)ccc(C)c4oc-3c(C)c(=O)c2N)C(C)OC(=O)C(C(C)C)N(C)C(=O)CN(C)C(=O)C2CCCN2C1=O (stereo not drawn) (I: TIP[Sar][NMeV] / II: TVP[Sar][NMeV]; ester I:1-I:C, II:1-II:C; linker I:N-II:N via Actinocin(1to9); configuration not given here)	0.000388 µM (active)	0.00161 µM (active)	0.01 µM (active)	< 0.0001 µM (active)	0.00119 µM (active)	0.000421 µM (active)	0.000586 µM (active)	< 0.0001 µM (active)	0.156 µM (active)	< 0.0001 µM (active)	< 0.0001 µM (active)	0.000689 µM (active)	< 0.0001 µM (active)	0.000135 µM (active)	0.000443 µM (active)	0.00393 µM (active)	0.000244 µM (active)	0.00016 µM (active)	0.0101 µM (active)	< 0.0001 µM (active)
Nc1ccc2c3c1cccc3c(=O)n1c3ccc(Cc4ccc5c(c4)nc4c6ccc(N)c7cccc(c(=O)n54)c76)cc3nc21	> 100 µM (inactive)	> 100 µM (inactive)	> 100 µM (inactive)	> 100 µM (inactive)	> 100 µM (inactive)	> 100 µM (inactive)	> 100 µM (inactive)	> 100 µM (inactive)	> 100 µM (inactive)	> 100 µM (inactive)	> 100 µM (inactive)	> 100 µM (inactive)	> 100 µM (inactive)	> 100 µM (inactive)	> 100 µM (inactive)	> 100 µM (inactive)	> 100 µM (inactive)	> 100 µM (inactive)	> 100 µM (inactive)	> 100 µM (inactive)
O=C(O)c1cc2ccc3ccccc3c2oc1=O	> 100 µM (inactive)	> 100 µM (inactive)	> 100 µM (inactive)	> 100 µM (inactive)	> 100 µM (inactive)	> 100 µM (inactive)	> 100 µM (inactive)	> 100 µM (inactive)	> 100 µM (inactive)	> 100 µM (inactive)	> 100 µM (inactive)	> 100 µM (inactive)	> 100 µM (inactive)	> 100 µM (inactive)	> 100 µM (inactive)	> 100 µM (inactive)	> 100 µM (inactive)	> 100 µM (inactive)	> 100 µM (inactive)	> 100 µM (inactive)
O=C(CSc1ncnc2[nH]cnc12)c1ccccc1	> 100 µM (inactive)	50.2 µM (inactive)	> 76.2 µM (inactive)	> 64.3 µM (inactive)	> 100 µM (inactive)	> 65.8 µM (inactive)	> 57.1 µM (inactive)	> 100 µM (inactive)	96.4 µM (inactive)	> 100 µM (inactive)	41.3 µM (inactive)	> 100 µM (inactive)	86.3 µM (inactive)	86.3 µM (inactive)	> 100 µM (inactive)	> 100 µM (inactive)	92.5 µM (inactive)	> 41.1 µM (inactive)	> 100 µM (inactive)	> 100 µM (inactive)
Cc1nc(C)c(N2CCN(C(=O)NC(CCC(=O)O)C(=O)O)CC2)c(O)n1 (stereo not drawn)	> 100 µM (inactive)	> 100 µM (inactive)	> 100 µM (inactive)	> 100 µM (inactive)	> 100 µM (inactive)	> 100 µM (inactive)	> 100 µM (inactive)	> 100 µM (inactive)	> 100 µM (inactive)	> 100 µM (inactive)	> 100 µM (inactive)	> 100 µM (inactive)	–	> 100 µM (inactive)	> 100 µM (inactive)	> 100 µM (inactive)	> 100 µM (inactive)	> 100 µM (inactive)	> 100 µM (inactive)	> 100 µM (inactive)
O=C(O)c1ccccc1CC(Cc1ccc2c(c1)CCC2)C(=O)O (stereo not drawn)	> 100 µM (inactive)	> 100 µM (inactive)	> 100 µM (inactive)	> 100 µM (inactive)	> 100 µM (inactive)	> 100 µM (inactive)	> 100 µM (inactive)	> 100 µM (inactive)	> 100 µM (inactive)	> 100 µM (inactive)	> 100 µM (inactive)	> 100 µM (inactive)	> 100 µM (inactive)	> 100 µM (inactive)	> 100 µM (inactive)	> 100 µM (inactive)	8.07 µM (inactive)	> 100 µM (inactive)	> 100 µM (inactive)	> 100 µM (inactive)
Nc1ccc2c(c1)C(=O)N1CCC[C@H]1C(=O)N2	> 100 µM (inactive)	> 100 µM (inactive)	> 100 µM (inactive)	> 100 µM (inactive)	> 100 µM (inactive)	1.38 µM (inactive)	> 100 µM (inactive)	> 100 µM (inactive)	> 100 µM (inactive)	> 100 µM (inactive)	> 100 µM (inactive)	> 100 µM (inactive)	> 100 µM (inactive)	> 100 µM (inactive)	> 100 µM (inactive)	> 100 µM (inactive)	> 100 µM (inactive)	> 100 µM (inactive)	> 100 µM (inactive)	> 100 µM (inactive)
CCOC(=O)c1cc2c3c(cc(OC)c2[nH]1)N(C(=O)OCC)CC3	> 100 µM (inactive)	> 100 µM (inactive)	> 100 µM (inactive)	> 100 µM (inactive)	> 100 µM (inactive)	> 100 µM (inactive)	> 100 µM (inactive)	> 100 µM (inactive)	> 100 µM (inactive)	> 100 µM (inactive)	> 100 µM (inactive)	> 100 µM (inactive)	> 100 µM (inactive)	> 100 µM (inactive)	> 100 µM (inactive)	> 100 µM (inactive)	86.1 µM (inactive)	> 100 µM (inactive)	> 100 µM (inactive)	> 100 µM (inactive)
CC(C)NC(=O)OCc1c(COC(=O)NC(C)C)c(-c2cc[n+](COC(=O)C3CC3)cc2)n2c1CCC2	> 100 µM (inactive)	> 100 µM (inactive)	50.1 µM (inactive)	> 100 µM (inactive)	> 100 µM (inactive)	> 100 µM (inactive)	> 100 µM (inactive)	> 100 µM (inactive)	> 100 µM (inactive)	> 100 µM (inactive)	> 100 µM (inactive)	> 100 µM (inactive)	> 100 µM (inactive)	> 100 µM (inactive)	> 100 µM (inactive)	> 100 µM (inactive)	> 100 µM (inactive)	> 100 µM (inactive)	> 100 µM (inactive)	> 100 µM (inactive)
O=C(C(=O)n1ccc2ccccc21)c1c[nH]c2ccccc12	> 10 µM (inactive)	> 10 µM (inactive)	> 10 µM (inactive)	> 10 µM (inactive)	> 10 µM (inactive)	> 10 µM (inactive)	> 10 µM (inactive)	> 10 µM (inactive)	> 10 µM (inactive)	> 10 µM (inactive)	> 10 µM (inactive)	> 10 µM (inactive)	> 10 µM (inactive)	> 10 µM (inactive)	> 10 µM (inactive)	> 10 µM (inactive)	> 10 µM (inactive)	> 10 µM (inactive)	> 10 µM (inactive)	> 10 µM (inactive)
CCCCCCCCCCCCNC(=O)CCC(NC(=O)c1ccc(N(C)Cc2cnc3nc(N)nc(N)c3n2)cc1)C(=O)NCCCCCCCCCCCC (stereo not drawn)	91.8 µM (inactive)	9.44 µM (inactive)	18.4 µM (inactive)	> 100 µM (inactive)	> 100 µM (inactive)	25.8 µM (inactive)	> 100 µM (inactive)	26.6 µM (inactive)	> 100 µM (inactive)	30.6 µM (inactive)	18.5 µM (inactive)	95.5 µM (inactive)	> 100 µM (inactive)	41.7 µM (inactive)	16.9 µM (inactive)	36.1 µM (inactive)	11.9 µM (inactive)	46.7 µM (inactive)	> 100 µM (inactive)	22.9 µM (inactive)
CCOC(=O)Cc1nn2c(=O)cc(C)nc2s1	> 100 µM (inactive)	> 100 µM (inactive)	> 100 µM (inactive)	> 100 µM (inactive)	> 100 µM (inactive)	> 100 µM (inactive)	> 100 µM (inactive)	> 100 µM (inactive)	> 100 µM (inactive)	> 100 µM (inactive)	> 100 µM (inactive)	> 100 µM (inactive)	> 100 µM (inactive)	> 100 µM (inactive)	> 100 µM (inactive)	> 100 µM (inactive)	> 100 µM (inactive)	> 100 µM (inactive)	> 100 µM (inactive)	> 100 µM (inactive)
Cc1cccc(-c2cc(O)c3cc(C)cnc3n2)c1	0.571 µM (active)	11.7 µM (inactive)	0.229 µM (active)	0.239 µM (active)	–	0.202 µM (active)	0.414 µM (active)	0.118 µM (active)	0.122 µM (active)	0.305 µM (active)	0.0411 µM (active)	0.111 µM (active)	0.12 µM (active)	0.0194 µM (active)	0.39 µM (active)	0.54 µM (active)	0.0368 µM (active)	0.0869 µM (active)	0.238 µM (active)	0.366 µM (active)
